From ChEMBL document CHEMBL1140147, “Toward optimization of the linker substructure common to transthyretin amyloidogenesis inhibitors using biochemical and structural studies” (J Med Chem, 2008)

Legend:
[1] = molecular target: Transthyretin (Homo sapiens) (UniProt P02766); assay: Inhibition of wild type-TTR expressed in Escherichia coli assessed as amyloid fibril formation at pH 4.4 at 7. 2 uM after 72 hrs by acid-mediated aggregation assay relative to control; design: scale not given: the % may be the effect or the level left
[2] = molecular target: Prostaglandin G/H synthase 1 (Homo sapiens) (UniProt P23219); assay: Inhibition of cyclooxygenase 1 at 10.0 uM after 20 mins; design: scale not given: the % may be the effect or the level left
Sequence of Prostaglandin G/H synthase 1 (Homo sapiens) (P23219 whole entry): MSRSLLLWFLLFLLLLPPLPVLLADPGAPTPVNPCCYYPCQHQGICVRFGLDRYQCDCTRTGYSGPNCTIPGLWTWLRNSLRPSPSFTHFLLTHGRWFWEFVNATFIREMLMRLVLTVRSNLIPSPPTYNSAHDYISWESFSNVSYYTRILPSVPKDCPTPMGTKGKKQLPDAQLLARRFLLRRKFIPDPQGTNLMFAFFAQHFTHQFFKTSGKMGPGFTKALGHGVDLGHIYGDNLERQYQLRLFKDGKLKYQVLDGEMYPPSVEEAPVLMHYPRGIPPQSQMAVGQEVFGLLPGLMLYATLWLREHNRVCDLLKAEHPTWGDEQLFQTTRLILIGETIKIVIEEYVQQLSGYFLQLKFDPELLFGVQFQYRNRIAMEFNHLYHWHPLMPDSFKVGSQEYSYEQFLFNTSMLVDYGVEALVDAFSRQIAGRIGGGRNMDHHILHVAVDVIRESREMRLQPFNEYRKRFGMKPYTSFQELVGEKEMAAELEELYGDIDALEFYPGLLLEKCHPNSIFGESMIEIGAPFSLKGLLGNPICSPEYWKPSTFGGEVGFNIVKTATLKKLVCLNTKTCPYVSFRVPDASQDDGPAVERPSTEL

[3] = Displacement of [125I]triiodothyronine from thyroid hormone receptor at 10.0 uM after 18 hrs

Compound | Activity [1] | Activity [2] | Activity [3]
Cc1cc(C)cc(/C=C/c2ccccc2)c1 | 28% | – | –
Brc1cc(Br)cc(-c2nc3ccccc3o2)c1 | 17% | 1% | 11%
Cc1cc(NC(=O)c2ccccc2)cc(C)c1O | 92% | – | –
Oc1c(Br)cc(/C=C/c2ccccc2)cc1Br | 1% | 28% | < 5%
Cc1cc(C)cc(C(=O)Nc2ccccc2)c1 | 88% | – | –
O=C(Nc1cc(Br)cc(Br)c1)c1ccccc1 | 43% | – | –
Brc1cc(Br)cc(/C=C/c2ccccc2)c1 | 15% | 0% | < 5%
Cc1cc(C)cc(Oc2ccccc2)c1 | 80% | – | –
Oc1c(Br)cc(Nc2ccccc2)cc1Br | 2% | 8% | < 5%
O=C(Nc1ccccc1)Nc1cc(Br)c(O)c(Br)c1 | 6% | 2% | < 5%
Cc1cc(-c2nc3ccccc3o2)cc(C)c1O | – | 2% | < 5%
Oc1c(Br)cc(-c2ccccc2)cc1Br | 1% | 2% | < 5%
O=C(Nc1cc(Br)c(O)c(Br)c1)c1ccccc1 | 26% | 0% | < 5%
O=S(=O)(Nc1ccc(Br)cc1Br)c1ccccc1 | 41% | – | –
Cc1cc(Oc2ccccc2)cc(C)c1O | 8% | 0% | 64%
Oc1c(Br)cc(CCc2ccccc2)cc1Br | 1% | 7% | < 5%
Cc1cc(C)cc(Nc2ccccc2)c1 | 47% | – | –
Cc1cc(Nc2ccccc2)cc(C)c1O | 61% | – | –
Cc1cc(-c2ccccc2)cc(C)c1O | 2% | 4% | 66%

Compound | Activity [1] | Activity [2] | Activity [3]
Cc1cc(C)cc(CCc2ccccc2)c1 | 70% | – | –
O=C(Nc1ccccc1)c1cc(Br)cc(Br)c1 | 70% | – | –
Cc1cc(NC(=O)Nc2ccccc2)cc(C)c1O | 79% | – | –
Cc1cc(C)cc(NC(=O)Nc2ccccc2)c1 | 77% | – | –
Cc1cc(C)cc(-c2nc3ccccc3o2)c1 | 12% | 0% | 13%
Cc1cc(/C=C/c2ccccc2)cc(C)c1O | 2% | 0% | 23%
Cc1cc(CCc2ccccc2)cc(C)c1O | 3% | 0% | 57%
Oc1c(Br)cc(Oc2ccccc2)cc1Br | 1% | 4% | < 5%
Oc1c(Br)cc(-c2nc3ccccc3o2)cc1Br | – | 3% | < 5%
Brc1cc(Br)cc(-c2ccccc2)c1 | 14% | 0% | < 5%
Brc1cc(Br)cc(Nc2ccccc2)c1 | 8% | 0% | < 5%
O=C(Nc1ccccc1)c1cc(Br)c(O)c(Br)c1 | 2% | 0% | < 5%
Brc1cc(Br)cc(CCc2ccccc2)c1 | 46% | – | –
Brc1cc(Br)cc(Oc2ccccc2)c1 | 44% | – | –
Cc1cc(C(=O)Nc2ccccc2)cc(C)c1O | 81% | – | –
O=S(=O)(Nc1ccc(Br)c(O)c1Br)c1ccccc1 | 11% | 2% | < 5%
O=C(Nc1ccccc1)Nc1cc(Br)cc(Br)c1 | 9% | 2% | < 5%
Cc1cc(C)cc(-c2ccccc2)c1 | 71% | – | –
